Experimental data as given in ChEMBL document CHEMBL1129077 (J Med Chem, 1996).

Assays:
[1] = biological target: T1, Transient receptor potential cation channel subfamily V member 1 (Homo sapiens, UniProt Q8NER1); test: Effect on cooperativity of Resiniferatoxin (RTX) binding (Hill coefficient); type: functional
[2] = biological target: T1, Transient receptor potential cation channel subfamily V member 1; test: Inhibition of [3H]- RTX binding to Vanilloid receptors from human spinal cord
[3] = biological target: T2, Transient receptor potential cation channel subfamily V member 1 (Rattus norvegicus, UniProt O35433); test: Inhibitory constant for RTX binding to rat spinal cord; type: functional
T2 sequence (O35433 whole entry): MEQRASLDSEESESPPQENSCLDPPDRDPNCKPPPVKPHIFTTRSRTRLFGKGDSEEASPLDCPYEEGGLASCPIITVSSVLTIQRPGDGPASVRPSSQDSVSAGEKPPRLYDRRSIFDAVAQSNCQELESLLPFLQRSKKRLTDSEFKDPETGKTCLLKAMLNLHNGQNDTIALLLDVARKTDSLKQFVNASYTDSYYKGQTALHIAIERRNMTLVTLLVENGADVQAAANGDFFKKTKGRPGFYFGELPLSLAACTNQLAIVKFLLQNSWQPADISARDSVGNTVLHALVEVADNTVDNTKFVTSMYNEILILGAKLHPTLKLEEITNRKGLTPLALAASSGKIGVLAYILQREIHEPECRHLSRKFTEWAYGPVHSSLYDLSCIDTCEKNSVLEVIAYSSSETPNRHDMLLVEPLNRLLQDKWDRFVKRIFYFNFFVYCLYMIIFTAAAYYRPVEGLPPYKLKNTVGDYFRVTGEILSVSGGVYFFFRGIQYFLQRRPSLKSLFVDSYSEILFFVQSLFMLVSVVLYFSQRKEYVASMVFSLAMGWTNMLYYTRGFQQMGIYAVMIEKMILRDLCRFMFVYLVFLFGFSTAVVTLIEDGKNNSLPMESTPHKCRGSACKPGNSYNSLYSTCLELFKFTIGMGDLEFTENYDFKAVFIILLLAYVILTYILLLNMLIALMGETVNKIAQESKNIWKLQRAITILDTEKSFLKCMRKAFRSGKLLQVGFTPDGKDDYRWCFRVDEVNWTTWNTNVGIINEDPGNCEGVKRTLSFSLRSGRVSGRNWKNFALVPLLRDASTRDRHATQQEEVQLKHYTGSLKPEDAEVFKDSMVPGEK

[4] = system: Rattus norvegicus; test: Desensitisation against RTX-induced ear edema formation 24 hr r post-administration; type: functional
[5] = biological target: T1, Transient receptor potential cation channel subfamily V member 1; test: Inhibitory constant for RTX binding to human spinal cord; type: functional, tissue-based
[6] = biological target: T2, Transient receptor potential cation channel subfamily V member 1; test: Displacement of [3H]RTX binding from Vanilloid receptor of rat dorsal Root Ganglion (DRG) membranes; type: cell membranes, Membrane
[7] = biological target: T2, Transient receptor potential cation channel subfamily V member 1; test: Inhibition of [3H]- RTX binding to vanilloid receptor of rat urinary bladder; type: functional
[8] = biological target: T2, Transient receptor potential cation channel subfamily V member 1; test: Displacement of [3H]RTX from Vanilloid receptor in Rat spinal cord membranes; type: cell membranes, Membrane
[9] = The effect on the Cooperativity of Resiniferatoxin binding, as Quantitated by the Hill Coefficients.

T1 sequence (Q8NER1 whole entry): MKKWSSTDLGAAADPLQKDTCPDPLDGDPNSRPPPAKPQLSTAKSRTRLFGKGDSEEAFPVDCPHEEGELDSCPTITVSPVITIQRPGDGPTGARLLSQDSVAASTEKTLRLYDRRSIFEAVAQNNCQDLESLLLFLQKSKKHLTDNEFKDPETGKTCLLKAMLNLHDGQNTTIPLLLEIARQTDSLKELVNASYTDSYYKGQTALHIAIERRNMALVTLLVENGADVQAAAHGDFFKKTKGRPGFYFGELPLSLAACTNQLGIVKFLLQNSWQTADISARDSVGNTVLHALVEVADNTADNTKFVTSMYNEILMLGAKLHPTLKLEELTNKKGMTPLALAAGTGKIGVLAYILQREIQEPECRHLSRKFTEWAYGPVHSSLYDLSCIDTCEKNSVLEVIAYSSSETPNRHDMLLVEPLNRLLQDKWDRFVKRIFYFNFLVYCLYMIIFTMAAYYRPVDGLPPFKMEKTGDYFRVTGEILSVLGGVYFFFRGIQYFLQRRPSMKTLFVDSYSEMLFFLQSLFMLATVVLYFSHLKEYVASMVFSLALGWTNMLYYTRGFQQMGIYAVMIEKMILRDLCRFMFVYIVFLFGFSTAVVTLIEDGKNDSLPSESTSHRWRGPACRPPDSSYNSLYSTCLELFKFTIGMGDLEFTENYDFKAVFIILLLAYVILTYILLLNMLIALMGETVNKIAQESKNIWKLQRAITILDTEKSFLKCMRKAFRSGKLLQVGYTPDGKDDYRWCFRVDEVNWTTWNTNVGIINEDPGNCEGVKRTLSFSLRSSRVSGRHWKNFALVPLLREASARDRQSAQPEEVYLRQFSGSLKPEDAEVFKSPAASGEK

SMILES | Hill coefficient [1] | Ki [8] | also measured
COc1cc(CNC(=O)CCCC/C=C/C(C)C)ccc1O | 2 |  | 
COc1cc(CC(=O)OCC2=C[C@H]3[C@@H]4C(C)(C)[C@]4(OC(C)=O)[C@H](OC(=O)Cc4ccccc4)[C@@H](C)[C@]3(O)[C@@H]3C=C(C)C(=O)[C@@]3(O)C2)ccc1O | 1.1 |  | Ki [2]: 6400 nM; Ki [3]: 0.054 nM; ED50 [4]: 10 mg/kg; Ki [5]: 0.45 nM; Ki [6]: 600 nM; Ki [7]: 2000 nM
COc1cc(CC(=O)OCC2=C[C@H]3[C@@H]4C(C)(C)[C@]4(OC(C)=O)[C@H](OC(=O)Cc4ccc(N=[N+]=[N-])cc4)[C@@H](C)[C@]3(O)[C@@H]3C=C(C)C(=O)[C@@]3(O)C2)ccc1O | 1.4 | 200 nM | 
COc1cc(CC(=O)OCC2=C[C@H]3[C@@H]4C(C)(C)[C@]4(OC(C)=O)C(=O)[C@@H](C)[C@]3(O)[C@@H]3C=C(C)C(=O)[C@@]3(O)C2)ccc1O |  | > 10000 nM | 
COc1cc(CC(=O)OCC2=C[C@H]3[C@@H]4C(C)(C)[C@]4(OC(=O)Cc4ccccc4)C(=O)[C@@H](C)[C@]3(O)[C@@H]3C=C(C)C(=O)[C@@]3(O)C2)ccc1O | 0.9 | 1300 nM | 
C=C(C)[C@]12C[C@@H](C)[C@@]34O[C@](Cc5ccccc5)(O[C@@H]1[C@@H]3C=C(COC(=O)Cc1ccc(O)c(OC)c1)C[C@]1(O)C(=O)C(C)=CC41)O2 (single isomer, unassigned) [RESINIFERATOXIN] |  | 0.02 nM | Hill coefficient [9]: 2.3
COc1cc(CC(=O)OCC2=C[C@H]3[C@@H]4C(C)(C)[C@]4(OC(C)=O)[C@H](OC(=O)c4ccc(N=[N+]=[N-])cc4)[C@@H](C)[C@]3(O)[C@@H]3C=C(C)C(=O)[C@@]3(O)C2)ccc1O | 1.5 | 200 nM | 
COc1cc(CC(=O)OCC2=C[C@H]3[C@@H]4C(C)(C)[C@]4(OC(C)=O)[C@H](OC(=O)c4ccccc4)[C@@H](C)[C@]3(O)[C@@H]3C=C(C)C(=O)[C@@]3(O)C2)ccc1O | 1.7 | 400 nM | 
COc1cc(CC(=O)OCC2=C[C@H]3[C@@H]4C(C)(C)[C@]4(OC(C)=O)[C@H](OC(=O)CC4CCCCC4)[C@@H](C)[C@]3(O)[C@@H]3C=C(C)C(=O)[C@@]3(O)C2)ccc1O | 1.1 | 400 nM | 
COc1cc(CC(=O)OCC2=C[C@H]3[C@@H]4C(C)(C)[C@]4(OC(=O)Cc4ccccc4)[C@H](OC(=O)Cc4ccccc4)[C@@H](C)[C@]3(O)[C@@H]3C=C(C)C(=O)[C@@]3(O)C2)ccc1O | 1.3 | 300 nM | 
COc1cc(CC(=O)OCC2=C[C@H]3[C@@H]4C(C)(C)[C@]4(OC(C)=O)[C@H](OC(=O)C4CCCCC4)[C@@H](C)[C@]3(O)[C@@H]3C=C(C)C(=O)[C@@]3(O)C2)ccc1O | 1 | 2200 nM | 
COc1cc(CC(=O)OCC2=C[C@H]3[C@@H]4C(C)(C)[C@]4(OC(C)=O)[C@H](OC(=O)Cc4ccccc4)[C@@H](C)[C@]3(O)[C@@H]3C=C(C)C(=O)[C@@]3(O)C2)ccc1OC(C)=O | 1 | 1700 nM | 
COc1cc(CC(=O)OCC2=C[C@H]3[C@@H]4C(C)(C)[C@]4(OC(C)=O)[C@H](OC(=O)Cc4ccccc4)[C@@H](C)[C@]3(O)[C@@H]3C=C(C)[C@H](O)[C@@]3(O)C2)ccc1O |  | > 10000 nM | 
Oc1cc2c(cc1O)CN(C(=S)NCCc1ccc(Cl)cc1)CCC2 [CAPSAZEPINE] | 2.4 | 1200 nM | 
